Where a name gives a salt, the structure may show the parent alone.
Molecular target: T1, EGFR del746-750 T790M (Homo sapiens, UniProt P00533, DEL746-750/T790M)
T1 construct: purchased Carna Biosciences 08-528
Assay: EGFR del746-750 T790M biochemical assay (Caliper mobility shift)
Settings: 5 μM ATP, 30 min, room temperature; apparent Ki (Morrison) converted by Cheng-Prusoff, Km of ATP 2.1 μM; read-out: EGFR(T790M/d746-750) Ki

T1 sequence (P00533 with tags, fused parts or gaps DEL746-750/T790M limits assumed): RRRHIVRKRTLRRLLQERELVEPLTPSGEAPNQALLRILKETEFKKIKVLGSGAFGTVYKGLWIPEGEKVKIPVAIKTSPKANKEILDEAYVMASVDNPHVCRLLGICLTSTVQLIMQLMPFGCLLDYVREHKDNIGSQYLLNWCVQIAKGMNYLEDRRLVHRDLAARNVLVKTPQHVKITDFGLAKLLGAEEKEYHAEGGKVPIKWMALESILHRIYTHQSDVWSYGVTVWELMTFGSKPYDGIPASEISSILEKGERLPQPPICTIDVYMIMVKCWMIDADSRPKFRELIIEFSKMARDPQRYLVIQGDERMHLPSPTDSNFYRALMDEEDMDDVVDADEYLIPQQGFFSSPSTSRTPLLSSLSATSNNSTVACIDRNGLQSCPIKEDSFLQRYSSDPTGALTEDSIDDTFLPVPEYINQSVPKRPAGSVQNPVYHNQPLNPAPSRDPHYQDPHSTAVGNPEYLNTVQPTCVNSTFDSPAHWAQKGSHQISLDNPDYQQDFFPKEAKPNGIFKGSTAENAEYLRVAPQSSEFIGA

Row | Ki | SMILES
1 | 17.4 nM | CO[C@@H]1CCN(c2nccc(Nc3cc4c(cn3)nc(CO)n4[C@@H](C)C(F)(F)F)n2)C[C@@H]1F [Example 657]
2 | 483 nM | Cc1nc2cnc(Nc3ccnc(N4CC[C@@H](S(C)(=O)=O)[C@H](F)C4)n3)cc2n1C(C)C (racemic) [Example 616, [2-(±)-(trans-3-Fluoro-4-methanesulfonylpiperidin-1-yl)pyrimidin-4-yl]-(1-isopropyl-2-methyl-1H-imidazo[4,5-c]pyridin-6-yl)amine]
3 | 107 nM | C[C@@H](O)c1nc2cnc(Nc3ccnc(N4CC[C@H](O)[C@H](F)C4)n3)cc2n1[C@H](C)C(F)(F)F [Example 688]
4 | 326 nM | CO[C@@H]1CCN(c2nccc(Nc3cc4c(cn3)nc(CO)n4C(C)C)n2)C[C@@H]1C (racemic) [Example 632, (1-Isopropyl-6-(2-((±)-(cis)-4-methoxy-3-methylpiperidin-1-yl)pyrimidin-4-ylamino)-1H-imidazo[4,5-c]pyridin-2-yl)methanol]
5 | 128 nM | Cc1nc2cnc(Nc3ccnc(N4CCC(O)CC4)n3)cc2n1C(C)C [Example 503, 1-(4-((1-Isopropyl-2-methyl-1H-imidazo[4,5-c]pyridin-6-yl)amino)pyrimidin-2-yl)piperidin-4-ol]
6 | 572 nM | CC(C)n1c(CO)nc2cnc(Nc3ccnc(N4CCC5(CC4)CNC(=O)CO5)n3)cc21 [Example 693]
7 | 41.1 nM | CO[C@H]1CCN(c2nccc(Nc3cc4c(cn3)nc(C)n4C(C)C)n2)C[C@H]1F (racemic) [Example 607, [2-((3RS,4SR)-3-Fluoro-4-methoxypiperidin-1-yl)pyrimidin-4-yl]-(1-isopropyl-2-methyl-1H-imidazo[4,5-c]pyridin-6-yl)amine]
8 | 67.8 nM | CC(C)n1c(CO)nc2cnc(Nc3ccnc(C4=CCC(O)CC4)n3)cc21 (stereo not shown) [Example 624, 4-(4-((2-(hydroxymethyl)-1-isopropyl-1H-imidazo[4,5-c]pyridin-6-yl)amino)pyrimidin-2-yl)cyclohex-3-enol]
9 | 2.39 nM | CCC(C)n1cc(C(=O)NC2CCOCC2)c2cnc(Nc3ccnc(N4CC[C@@H](O)[C@@H](F)C4)n3)cc21 (single isomer, unassigned) [Example 324]
10 | 11.1 nM | CC(C)n1c(C(C)(C)O)nc2cnc(Nc3ccnc(-c4cnn(S(=O)(=O)C5CC5)c4)n3)cc21 [Example 563, 2-{6-[2-(1-Cyclopropanesulfonyl-1H-pyrazol-4-yl)pyrimidin-4-ylamino]-1-isopropyl-1H-imidazo[4,5-c]pyridin-2-yl} propan-2-ol]
11 | 501 nM | Cc1nc2cnc(Nc3ccnc(N4CCC(S(C)(=O)=O)CC4)n3)cc2n1C(C)C [Example 545, (1-Isopropyl-2-methyl-1H-imidazo[4,5-c]pyridin-6-yl)-[2-(4-methanesulfonylpiperidin-1-yl)pyrimidin-4-yl]amine]
12 | 417 nM | COC1CCN(c2nccc(Nc3cc4c(cn3)nc(CN(C)C)n4C(C)C)n2)CC1 [Example 9, (2-Dimethylaminomethyl-1-isopropyl-1H-imidazo[4,5-c]pyridin-6-yl)-[2-(4-methoxypiperidin-1-yl)pyrimidin-4-yl]amine formate salt]
13 | 50.9 nM | CO[C@H]1CCN(c2nccc(Nc3cc4c(cn3)nc(C)n4C(C)C)n2)C[C@H]1F (racemic) [Example 524, (±)-[2-((cis)-3-Fluoro-4-methoxypiperidin-1-yl)pyrimidin-4-yl]-(1-isopropyl-2-methyl-1H-imidazo[4,5-c]pyridin-6-yl)amine]
14 | 68.4 nM | C[C@H](n1c([C@@H](C)O)nc2cnc(Nc3ccnc(N4CCC(S(C)(=O)=O)CC4)n3)cc21)C(F)(F)F [Example 662]
15 | 21.7 nM | C[C@H](n1c([C@@H](C)O)nc2cnc(Nc3ccnc(N4CC[C@@](C)(O)[C@@H](F)C4)n3)cc21)C(F)(F)F (single isomer, unassigned) [Example 621, (3R*,4S*)-3-Fluoro-1-{4-[2-((R)-1-hydroxyethyl)-1-((S)-2,2,2-trifluoro-1-methylethyl)-1H-imidazo[4,5-c]pyridin-6-ylamino]pyrimidin-2-yl}-4-methylpiperidin-4-ol]
16 | 40 nM | COC1CCN(c2nccc(Nc3cc4c(cn3)nc([C@@H](C)O)n4[C@H](C)C(F)(F)F)n2)CC1F (mixture of isomers) [Example 297, (R)-1-[6-[2-(cis-3-Fluoro-4-methoxypiperidin-1-yl)pyrimidin-4-ylamino]-1-((R)-2,2,2-trifluoro-1-methylethyl)-1H-imidazo[4,5-c]pyridin-2-yl]ethanol]

Molecular target: T2, phosphor-EGFR in H1975(L585R/T790M) mutant EGFR expressing cells (Homo sapiens, UniProt P00533, L858R/T790M)
T2 construct: host or cells: NCI-H1975
Assay: H1975 pEGFR MSD cellular assay
Type: cell-based
Settings: NCI-H1975 cells, serum starved, 1 hour compound incubation, pEGFR Tyr1068 MSD
Protocol: H1975 pEGFR MSD Cellular Assays Background:
These assays are intended for determining cellular. […] (Meso Scale Discovery Catalog# N31CB-1).
All cell culture reagents were purchased from Invitrogen/Gibco. Cells are cultured at 37° C. at 5% CO2 and split as recommended by ATCC.
Cell Plating and Serum Starvation:
After six hours, culture medium is aspirated and replaced with serum-free culture medium. Cells are then incubated with the serum-free medium overnight at 37° C. and 5% CO2.
The following day, test compounds are serially diluted in dimethyl sulfoxide (DMSO) and added to cells in serum free medium (final DMSO concentration 0.5%). Assay plates are then incubated for 1 hour at 37° C. and 5% CO2. Following 1 hour of compound incubation cells are then lysed and processed as per the MSD pEGFR assay kit protocol. Cell lysates are added to assay plates pre-coated with antibodies against phosphorylated EGFR. Phosphorylated EGFR in samples are allowed to bind to the capture antibodies overnight at 4° C. The detection antibody (anti-total EGFR, labeled with an electrochemiluminescent SULFO-TAG) is added to the bound lysate and incubated for 1 hour at room temperature. The MSD Read Buffer is added such that when a voltage is applied to the plate electrodes, the labels bound to the electrode surface emit light. The MSD Sector Instrument measures the intensity of the light, and quantitatively measures the amount of phosphorylated-EGFR in the sample. Percent inhibition of EGFR phosphorylation by varying concentrations of test compounds is calculated relative to untreated controls. EC50 values are calculated using the 4 parameter logistic nonlinear regression dose-response model.

T2 sequence (P00533 25-1210 T790M/L858R): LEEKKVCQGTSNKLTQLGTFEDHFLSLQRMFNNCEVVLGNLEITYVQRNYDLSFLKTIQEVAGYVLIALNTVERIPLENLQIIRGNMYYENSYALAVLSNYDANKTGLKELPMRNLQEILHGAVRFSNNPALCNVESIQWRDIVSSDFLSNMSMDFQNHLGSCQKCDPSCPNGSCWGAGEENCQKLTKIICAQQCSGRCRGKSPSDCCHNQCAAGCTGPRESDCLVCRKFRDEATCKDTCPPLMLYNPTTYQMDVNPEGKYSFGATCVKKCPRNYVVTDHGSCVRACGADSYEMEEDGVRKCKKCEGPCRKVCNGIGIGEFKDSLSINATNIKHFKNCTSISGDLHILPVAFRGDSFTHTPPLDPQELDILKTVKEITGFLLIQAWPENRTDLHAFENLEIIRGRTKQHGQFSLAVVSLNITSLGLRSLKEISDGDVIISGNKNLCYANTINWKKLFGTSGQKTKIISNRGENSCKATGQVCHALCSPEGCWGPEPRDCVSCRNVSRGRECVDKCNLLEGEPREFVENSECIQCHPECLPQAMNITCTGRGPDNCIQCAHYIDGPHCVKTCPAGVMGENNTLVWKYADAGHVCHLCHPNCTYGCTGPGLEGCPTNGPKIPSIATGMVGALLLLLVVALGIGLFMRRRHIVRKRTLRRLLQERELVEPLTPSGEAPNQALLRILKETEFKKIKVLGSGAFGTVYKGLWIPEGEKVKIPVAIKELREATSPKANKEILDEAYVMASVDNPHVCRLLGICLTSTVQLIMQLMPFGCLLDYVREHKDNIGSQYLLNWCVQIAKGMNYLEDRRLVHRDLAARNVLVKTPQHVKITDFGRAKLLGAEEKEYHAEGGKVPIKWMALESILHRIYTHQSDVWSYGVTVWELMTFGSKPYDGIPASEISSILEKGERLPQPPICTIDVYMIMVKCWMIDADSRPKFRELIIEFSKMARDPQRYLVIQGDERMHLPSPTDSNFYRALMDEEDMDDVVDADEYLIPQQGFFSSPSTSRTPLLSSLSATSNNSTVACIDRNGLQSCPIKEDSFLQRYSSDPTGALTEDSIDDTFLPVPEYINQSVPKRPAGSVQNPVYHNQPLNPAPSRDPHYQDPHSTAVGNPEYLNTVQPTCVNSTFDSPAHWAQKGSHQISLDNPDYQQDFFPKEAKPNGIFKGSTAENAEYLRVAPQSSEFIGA

Row | EC50 | SMILES
17 | 838 nM | CC1(C)COCc2nc3cnc(Nc4ccnc(-c5cnn(S(=O)(=O)C6CC6)c5)n4)cc3n21 [Example 538, [2-(1-Cyclopropanesulfonyl-1H-pyrazol-4-yl)-pyrimidin-4-yl]-(4,4-dimethyl-3,4-dihydro-1H-2-oxa-4a,7,9-triazafluoren-6-yl)amine]
18 | 1340 nM | Cc1nc2cnc(Nc3ccnc(-c4cnn(CC5CC5)c4)n3)cc2n1C(C)C [Example 395, N-(2-(1-(cyclopropylmethyl)-1H-pyrazol-4-yl)pyrimidin-4-yl)-1-isopropyl-2-methyl-1H-imidazo[4,5-c]pyridin-6-amine]
19 | 3570 nM | COc1ccc(-c2nccc(Nc3cc4c(cn3)ncn4C(C)C)n2)cn1 [Example 54, 1-Isopropyl-N-(2-(6-methoxypyridin-3-yl)pyrimidin-4-yl)-1H-imidazo[4,5-c]pyridin-6-amine]
20 | 414 nM | CC(C)n1c(OCCO)nc2cnc(Nc3ccnc(-c4cnn(S(=O)(=O)C5CC5)c4)n3)cc21 [Example 282, 2-{6-[2-(1-Cyclopropanesulfonyl-1H-pyrazol-4-yl)pyrimidin-4-ylamino]-1-isopropyl-1H-imidazo[4,5-c]pyridin-2-yloxy}ethanol]
21 | 831 nM | COC1(CO)CCN(c2nccc(Nc3cc4c(cn3)c(-c3cnn(C(C)(C)C(N)=O)c3)cn4C(C)C)n2)CC1 [Example 445, 2-(4-(6-(2-(4-(hydroxymethyl)-4-methoxypiperidin-1-yl)pyrimidin-4-ylamino)-1-isopropyl-1H-pyrrolo[3,2-c]pyridin-3-yl)-1H-pyrazol-1-yl)-2-methylpropanamide]
22 | 5750 nM | COC1(CN)CCN(c2nccc(Nc3cc4c(cn3)nc(C)n4C(C)C)n2)CC1 [Example 271, [2-(4-Aminomethyl-4-methoxypiperidin-1-yl)pyrimidin-4-yl](1-isopropyl-2-methyl-1H-imidazo[4,5-c]pyridin-6-yl)amine]
23 | 1160 nM | CC(C)n1c(C2CCCO2)nc2cnc(Nc3ccnc(-c4cnn(S(=O)(=O)C5CC5)c4)n3)cc21 (racemic) [Example 565, (±)-[2-(1-Cyclopropanesulfonyl-1H-pyrazol-4-yl)-pyrimidin-4-yl]-[1-isopropyl-2-(tetrahydro-furan-2-yl)-1H-imidazo[4,5-c]pyridin-6-yl]amine]
24 | 181 nM | CC(C)n1cc(C(N)=O)c2cnc(Nc3ccnc(-c4cnn(S(=O)(=O)C5CC5)c4)n3)cc21 [Example 51, 6-((2-(1-(Cyclopropylsulfonyl)-1H-pyrazol-4-yl)pyrimidin-4-yl)amino)-1-isopropyl-1H-pyrrolo[3,2-c]pyridine-3-carboxamide]
25 | 177 nM | CC(C)n1cc(C(=O)NC2COC2)c2cnc(Nc3ccnc(-c4cnn(S(=O)(=O)N(C)C)c4)n3)cc21 [Example 378, 6-((2-(1-(N,N-dimethylsulfamoyl)-1H-pyrazol-4-yl)pyrimidin-4-yl)amino)-1-isopropyl-N-(oxetan-3-yl)-1H-pyrrolo[3,2-c]pyridine-3-carboxamide]

Source: patent US9890152B2 (Genentech, Inc., priority 2012, dated 2018)
